IC50 data for 7 molecules are collected here from article PMC8366683 (Future oncology (London, England), 2013).

The subject of assay [1] is HEK293/pcDNA3.1. Description: cells. Particulars: Homo sapiens, HEK293, 72 h, read-out: IC50 ± SD^†; nM (resistance fold) / HEK293/pcDNA3.1.
In the next assay the test system is ABCG2-482-R2. Nature of the assay: cells. The following applies: 72 h, read-out: IC50 ± SD^†; nM (resistance fold) / ABCG2-482-R2.
A further assay concerns ABCG2-482-G2. Nature of the assay: cells. Particulars: 72 h, read-out: IC50 ± SD^†; nM (resistance fold) / ABCG2-482-G2.
Another assay relates to ABCG2-482-T7. Nature of the assay: cells. Particulars: 72 h, read-out: IC50 ± SD^†; nM (resistance fold) / ABCG2-482-T7.
A further assay has as its system KB-3-1. Nature of the assay: cells. The following applies: Homo sapiens, KB 3-1, 72 h, read-out: IC50 ± SD^†; nM (resistance fold) / KB-3-1.
The test system of a further assay is KB-C2. Nature of the assay: cells. The following applies: Homo sapiens, KB-C2, 72 h, read-out: IC50 ± SD^†; nM (resistance fold) / KB-C2.
In another assay the test system is HEK/ABCB1. Nature of the assay: cells. Particulars: 72 h, read-out: IC50 ± SD^†; nM (resistance fold) / HEK/ABCB1.
The subject of assay [2] is HEK293/pcDNA3.1. Description: cells. The following applies: Homo sapiens, HEK293, 72 h, read-out: IC50 ± SD^†; nM (resistance fold) / HEK293/pcDNA3.1. The source holds these as a separate data set.
The target in a further assay is ABCB1 (P-glycoprotein) (Homo sapiens, UniProt P08183). Description: competition of […]-IAAP photoaffinity labeling. It is filed as binding.
Sequence of ABCB1 (P-glycoprotein) (P08183 whole entry): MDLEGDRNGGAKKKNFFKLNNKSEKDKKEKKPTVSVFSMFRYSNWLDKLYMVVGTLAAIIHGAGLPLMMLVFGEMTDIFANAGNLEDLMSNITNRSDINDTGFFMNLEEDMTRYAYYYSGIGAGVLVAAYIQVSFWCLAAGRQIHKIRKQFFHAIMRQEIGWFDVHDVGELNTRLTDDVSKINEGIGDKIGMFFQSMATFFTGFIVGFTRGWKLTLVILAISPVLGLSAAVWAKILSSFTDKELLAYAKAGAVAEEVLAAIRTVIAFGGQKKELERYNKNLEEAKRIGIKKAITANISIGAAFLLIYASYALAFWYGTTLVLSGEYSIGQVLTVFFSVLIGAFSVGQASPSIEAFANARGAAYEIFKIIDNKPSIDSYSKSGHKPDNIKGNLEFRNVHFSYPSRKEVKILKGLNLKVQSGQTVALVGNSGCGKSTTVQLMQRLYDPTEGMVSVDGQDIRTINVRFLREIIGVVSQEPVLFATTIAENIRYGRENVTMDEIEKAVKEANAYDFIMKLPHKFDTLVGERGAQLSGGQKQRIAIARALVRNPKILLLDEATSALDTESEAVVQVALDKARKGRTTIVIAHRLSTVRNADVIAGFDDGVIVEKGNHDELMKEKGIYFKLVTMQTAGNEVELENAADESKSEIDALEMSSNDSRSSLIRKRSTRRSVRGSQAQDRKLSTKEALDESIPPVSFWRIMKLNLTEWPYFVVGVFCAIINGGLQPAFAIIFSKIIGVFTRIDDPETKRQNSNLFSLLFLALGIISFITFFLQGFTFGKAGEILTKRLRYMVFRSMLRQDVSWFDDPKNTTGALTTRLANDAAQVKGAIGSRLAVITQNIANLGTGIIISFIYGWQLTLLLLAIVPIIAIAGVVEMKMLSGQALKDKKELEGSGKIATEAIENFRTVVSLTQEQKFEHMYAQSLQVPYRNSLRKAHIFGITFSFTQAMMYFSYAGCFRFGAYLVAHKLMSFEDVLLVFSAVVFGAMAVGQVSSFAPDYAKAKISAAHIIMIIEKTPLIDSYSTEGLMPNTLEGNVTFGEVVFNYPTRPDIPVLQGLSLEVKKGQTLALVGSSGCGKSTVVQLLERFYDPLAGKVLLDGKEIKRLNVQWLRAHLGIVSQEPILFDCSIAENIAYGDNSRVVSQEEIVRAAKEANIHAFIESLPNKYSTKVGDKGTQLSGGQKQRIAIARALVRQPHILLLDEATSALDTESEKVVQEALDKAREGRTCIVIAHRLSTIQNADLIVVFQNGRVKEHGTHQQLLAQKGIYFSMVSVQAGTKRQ

Where two headings read alike, the source gives them in different places.

By IC50 is commonly meant the concentration that gives 50% inhibition. With `COc1cccc2c1C(=O)c1c(O)c3c(c(O)c1C2=O)C[C@@](O)(C(=O)CO)C[C@@H]3O[C@H]1C[C@H](N)[C@H](O)[C@H](C)O1` [Doxorubicin], the 50% inhibitory concentration (IC50) in the assay on HEK293/pcDNA3.1 [1] turned out to be 16.6 nM; with ABCG2-482-R2 it was 62.1 nM; with ABCG2-482-G2, 168 nM; in the assay on ABCG2-482-T7, 133 nM.

As for `CCc1c2c(nc3ccc(O)cc13)-c1cc3c(c(=O)n1C2)COC(=O)[C@]3(O)CC` [SN-38], the IC50 in the assay on HEK293/pcDNA3.1 [1] was 2.1 nM; in the assay with ABCG2-482-R2 it was 71.6 nM; in the assay with ABCG2-482-G2 it was 152 nM; with ABCG2-482-T7, 162 nM.

Turning to `CC[C@]1(O)C[C@@H]2CN(CCc3c([nH]c4ccccc34)[C@@](C(=O)OC)(c3cc4c(cc3OC)N(C)[C@H]3[C@@](O)(C(=O)OC)[C@H](OC(C)=O)[C@]5(CC)C=CCN6CC[C@]43[C@@H]65)C2)C1` [Vinblastine], the figures for the half-inhibitory concentration (IC50) in the assay with KB-3-1 and in the assay with KB-C2 were 0.2 nM and 34.4 nM, respectively.

Consider `CC[C@]1(O)C[C@H]2CN(CCc3c([nH]c4ccccc34)[C@@](C(=O)OC)(c3cc4c(cc3OC)N(C=O)[C@H]3[C@@](O)(C(=O)OC)[C@H](OC(C)=O)[C@]5(CC)C=CCN6CC[C@]43[C@@H]65)C2)C1` [Vincristine], for which the IC50 was 1410 nM with HEK/ABCB1 and 4.1 nM with HEK293/pcDNA3.1 [2].

On to `O=C1c2c(O)ccc(O)c2C(=O)c2c(NCCNCCO)ccc(NCCNCCO)c21` [mitoxantrone], for which the IC50 in the assay with HEK293/pcDNA3.1 [1] came out at 35.7 nM; with ABCG2-482-R2 it was 167 nM; in the assay on ABCG2-482-G2, 179 nM; in the assay on ABCG2-482-T7, 190 nM.

Consider `CC(=O)O[C@H]1C(=O)[C@@]2(C)[C@H]([C@H](OC(=O)c3ccccc3)[C@]3(O)C[C@H](OC(=O)[C@H](O)[C@@H](NC(=O)c4ccccc4)c4ccccc4)C(C)=C1C3(C)C)[C@]1(OC(C)=O)CO[C@@H]1C[C@@H]2O` [paclitaxel], for which the IC50 in the assay on KB-3-1 came out at 6.5 nM; in the assay on KB-C2, 4930 nM; in the assay with HEK/ABCB1, 8480 nM; in the assay with HEK293/pcDNA3.1 [2], 28.3 nM.

Regarding `COc1cc2nccc(Oc3ccc(NC(=O)Nc4cc(C)on4)c(Cl)c3)c2cc1OC` [tivozanib], the IC50 on ABCB1 (P-glycoprotein) was determined as 2.9 µM.
